Laboratory results reported in patent publication US20230089867A1, “CYCLIC PENTAMER COMPOUNDS AS PROPROTEIN CONVERTASE SUBTILISIN/KEXIN TYPE 9 (PCSK9) INHIBITORS FOR THE TREATMENT OF METABOLIC DISORDER” (Novartis AG, priority 2018, published 2023).

Target: human PCSK9 (Homo sapiens, UniProt Q8NBP7)
Test: PCSK9 ligand binding TR-FRET assay (interference with binding of human PCSK9 to human LDLR)
Conditions: for Max % inhibition: PCSK9 FRET assay, efficacy (Amax), 100% = 1 uM unlabeled human PCSK9, 0% = DMSO; for IC50: TR-FRET, human PCSK9 Alexa Fluor 647 / human LDLR extracellular domain-Europium Kryptate, read-out: PCSK9 FRET Assay IC50
Method in brief: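 Threefold compound dilutions were pre-incubated 30 min with PCSK9, after which 4 nM Europium Kryptate-tagged human LDLR ectodomain was added for a further 2 h.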

Sequence of human PCSK9 (Q8NBP7 153-692): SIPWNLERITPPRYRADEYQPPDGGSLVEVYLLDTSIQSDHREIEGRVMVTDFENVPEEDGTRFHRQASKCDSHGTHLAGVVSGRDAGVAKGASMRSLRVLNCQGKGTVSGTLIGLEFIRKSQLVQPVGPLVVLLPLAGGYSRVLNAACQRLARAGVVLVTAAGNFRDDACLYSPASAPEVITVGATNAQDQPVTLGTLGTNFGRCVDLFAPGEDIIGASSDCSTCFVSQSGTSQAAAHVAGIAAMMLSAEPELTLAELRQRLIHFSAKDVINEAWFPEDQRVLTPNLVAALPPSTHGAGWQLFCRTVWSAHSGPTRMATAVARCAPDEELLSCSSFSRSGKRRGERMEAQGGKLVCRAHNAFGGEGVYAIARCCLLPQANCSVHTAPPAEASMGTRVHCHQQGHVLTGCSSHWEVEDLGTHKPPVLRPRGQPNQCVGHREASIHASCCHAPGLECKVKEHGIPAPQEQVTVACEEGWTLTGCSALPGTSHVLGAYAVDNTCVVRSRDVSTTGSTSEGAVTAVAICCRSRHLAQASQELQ
Sequence of human PCSK9 (Q8NBP7 31-152 partner limits assumed): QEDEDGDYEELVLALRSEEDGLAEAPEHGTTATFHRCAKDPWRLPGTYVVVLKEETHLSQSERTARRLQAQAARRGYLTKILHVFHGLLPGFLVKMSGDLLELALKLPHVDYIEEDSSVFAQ

| Max % inhibition [%] | IC50 [nM] | Structure (SMILES) |
| --- | --- | --- |
| 90.08 | 705 | C[C@H]1CNC(=O)C[C@H](Cc2ccc(Cl)cc2)N(C)C(=O)[C@H](CCC(=O)O)NC(=O)[C@H](C)N(Cc2ccc(Cl)cc2Oc2ccc(-c3cnc(CN(C)C)n3C)cc2)C(=O)C[C@@H](Cc2ccccc2)C(=O)N1C [Compound 233, 3-((2S,5S,8S,13S,16R)-16-benzyl-1-(4-chloro-2-(4-(2-((dimethylamino)methyl)-1-methyl-1H-imidazol-5-yl)phenoxy)benzyl)-8-(4-chlorobenzyl)-2,7,13,14-tetramethyl-3,6,10,15,18-pentaoxo-1,4,7,11,14-pentaazacyclooctadecan-5-yl)propanoic acid] |
| 100.63 | 0.8 | COC[C@@H]1NC(=O)[C@H](COC)N(Cc2ccc(Cl)cc2Oc2ccc(-c3cnc(CN(C)C)n3C)cc2)C(=O)C[C@@H](Cc2ccccc2)C(=O)N(C)[C@H]2CCCC[C@@H]2NC(=O)C[C@H](Cc2ccc(Cl)cc2)N(C)C1=O [Compound 234, (4S,7S,10S,14R,16aS,20aS)-14-benzyl-11-(4-chloro-2-(4-(2-((dimethylamino)methyl)-1-methyl-1H-imidazol-5-yl)phenoxy)benzyl)-4-(4-chlorobenzyl)-7,10-bis(methoxymethyl)-5,16-dimethylhexadecahydrobenzo[l][1,4,7,11,14]pentaazacyclooctadecine-2,6,9,12,15(3H)-pentaone] |
| 100.56 | 11.1 | COC[C@@H]1NC(=O)[C@H](C)N(Cc2ccc(Cl)cc2Oc2ccc(-c3cnc(CN(C)C)n3C)cc2)C(=O)C[C@@H](Cc2ccccc2)C(=O)N(C)[C@@H](CO)CNC(=O)C[C@H](Cc2ccc(Cl)cc2)N(C)C1=O [Compound 235, (2S,5S,8S,13R,16R)-16-benzyl-1-(4-chloro-2-(4-(2-((dimethylamino)methyl)-1-methyl-1H-imidazol-5-yl)phenoxy)benzyl)-8-(4-chlorobenzyl)-13-(hydroxymethyl)-5-(methoxymethyl)-2,7,14-trimethyl-1,4,7,11,14-pentaazacyclooctadecane-3,6,10,15,18-pentaone] |
| 95.33 | 6.6 | COC[C@@H]1NC(=O)[C@H](C)N(Cc2c(F)cc(F)cc2Oc2ccc(-c3cnc(CN(C)C)n3C)cc2)C(=O)C[C@@H](Cc2ccccc2)C(=O)N(C)[C@@H](C)CNC(=O)C[C@H](Cc2ccc(Cl)cc2)N(C)C1=O [Compound 236, (2S,5S,8S,13S,16R)-16-benzyl-8-(4-chlorobenzyl)-1-(2-(4-(2-((dimethylamino)methyl)-1-methyl-1H-imidazol-5-yl)phenoxy)-4,6-difluorobenzyl)-5-(methoxymethyl)-2,7,13,14-tetramethyl-1,4,7,11,14-pentaazacyclooctadecane-3,6,10,15,18-pentaone] |
| 102.97 | 1.4 | COC[C@@H]1NC(=O)[C@H](CC(=O)OC(C)(C)C)N(Cc2ccc(Cl)cc2Oc2ccc(-c3cnc(CN(C)C)n3C)cc2)C(=O)C[C@@H](Cc2ccccc2)C(=O)N(C)[C@H]2CCCC[C@@H]2NC(=O)C[C@H](Cc2ccc(Cl)cc2)N(C)C1=O [Compound 237, tert-butyl 2-((4S,7S,10S,14R,16aS,20aS)-14-benzyl-11-(4-chloro-2-(4-(2-((dimethylamino)methyl)-1-methyl-1H-imidazol-5-yl)phenoxy)benzyl)-4-(4-chlorobenzyl)-7-(methoxymethyl)-5,16-dimethyl-2,6,9,12,15-pentaoxodocosahydrobenzo[l][1,4,7,11,14]pentaazacyclooctadecin-10-yl)acetate] |
| 104.90 | 2.5 | COC[C@@H]1NC(=O)[C@H](C)N(Cc2ccc(Cl)cc2Oc2ccc(-c3cnc(CN(C)C)n3C)cc2)C(=O)C[C@@H](Cc2cccc(OC(F)F)c2)C(=O)N(C)[C@@H](C)CNC(=O)C[C@H](Cc2ccc(Cl)cc2)N(C)C1=O [Compound 238, (2S,5S,8S,13S,16R)-1-(4-chloro-2-(4-(2-((dimethylamino)methyl)-1-methyl-1H-imidazol-5-yl)phenoxy)benzyl)-8-(4-chlorobenzyl)-16-(3-(difluoromethoxy)benzyl)-5-(methoxymethyl)-2,7,13,14-tetramethyl-1,4,7,11,14-pentaazacyclooctadecane-3,6,10,15,18-pentaone] |
| 106.17 | 1.3 | COCCN(C)C(=O)C[C@H]1C(=O)N[C@@H](COC)C(=O)N(C)[C@@H](Cc2ccc(Cl)cc2)CC(=O)N[C@H]2CCCC[C@@H]2N(C)C(=O)[C@H](Cc2ccccc2)CC(=O)N1Cc1ccc(Cl)cc1Oc1ccc(-c2cnc(CN(C)C)n2C)cc1 [Compound 239, 2-((4S,7S,10S,14R,16aS,20aS)-14-benzyl-11-(4-chloro-2-(4-(2-((dimethylamino)methyl)-1-methyl-1H-imidazol-5-yl)phenoxy)benzyl)-4-(4-chlorobenzyl)-7-(methoxymethyl)-5,16-dimethyl-2,6,9,12,15-pentaoxodocosahydrobenzo[l][1,4,7,11,14]pentaazacyclooctadecin-10-yl)-N-(2-methoxyethyl)-N-methylacetamide] |
| 99.28 | 0.9 | COC[C@@H]1NC(=O)[C@H](C)N(Cc2ccc(C)cc2Oc2ccc(-c3cnc(CN(C)C)n3C)cc2)C(=O)C[C@@H](Cc2ccccc2)C(=O)N(C)[C@@H](C)CNC(=O)C[C@H](Cc2ccc(Cl)cc2)N(C)C1=O [Compound 240, (2S,5S,8S,13S,16R)-16-benzyl-8-(4-chlorobenzyl)-1-(2-(4-(2-((dimethylamino)methyl)-1-methyl-1H-imidazol-5-yl)phenoxy)-4-methylbenzyl)-5-(methoxymethyl)-2,7,13,14-tetramethyl-1,4,7,11,14-pentaazacyclooctadecane-3,6,10,15,18-pentaone] |
| 72.66 | 247 | COC[C@@H]1NC(=O)[C@H](C)N(Cc2ccc(Cl)cc2Oc2ccc(-c3cnc([C@H](C)N(C)C)n3C)cc2)C(=O)C[C@@H](Cc2ccccc2)C(=O)N(C)[C@H]2CCCC[C@@H]2NC(=O)C[C@H](Cc2ccc(Cl)cc2)N(C)C1=O [Compound 241, (4S,7S,10S,14R,16aS,20aS)-14-benzyl-11-(4-chloro-2-(4-(2-((S)-1-(dimethylamino)ethyl)-1-methyl-1H-imidazol-5-yl)phenoxy)benzyl)-4-(4-chlorobenzyl)-7-(methoxymethyl)-5,10,16-trimethylhexadecahydrobenzo[l][1,4,7,11,14]pentaazacyclooctadecine-2,6,9,12,15(3H)-pentaone] |
| 87.34 | 1.3 | COC[C@@H]1NC(=O)[C@H](C)N(Cc2ccc(Cl)cc2Oc2ccc(-c3cnc(C(C)O)n3C)cc2)C(=O)C[C@@H](Cc2ccccc2)C(=O)N(C)[C@H]2CCCC[C@@H]2NC(=O)C[C@H](Cc2ccc(Cl)cc2)N(C)C1=O (stereo partly drawn) [Compound 242, (4S,7S,10S,14R,16aS,20aS)-14-benzyl-11-(4-chloro-2-(4-(2-(1-hydroxyethyl)-1-methyl-1H-imidazol-5-yl)phenoxy)benzyl)-4-(4-chlorobenzyl)-7-(methoxymethyl)-5,10,16-trimethylhexadecahydrobenzo[l][1,4,7,11,14]pentaazacyclooctadecine-2,6,9,12,15(3H)-pentaone] |
